We go through 17 compounds from ChEMBL document CHEMBL3612011, “Synthesis of new opioid derivatives with a propellane skeleton and their pharmacologies: Part 5, novel pentacyclic propellane derivatives with a 6-amide side chain” (Bioorg Med Chem, 2015).

The target in one data set is Mu-type opioid receptor (Cavia porcellus, UniProt P97266). Description: Displacement of [3H]DAMGO from MOR in guinea pig cerebellum membranes. It counts as cell membranes, Membrane. (In general: Displacement assays read how much labelled ligand stays bound in the presence of the test substance.)
Sequence of Mu-type opioid receptor (P97266 whole entry): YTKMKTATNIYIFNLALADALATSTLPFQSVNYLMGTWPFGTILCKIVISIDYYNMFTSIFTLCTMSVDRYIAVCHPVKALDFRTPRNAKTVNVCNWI
In data set [1] the target is Delta-type opioid receptor (Mus musculus, UniProt P32300). Description: Displacement of [3H]DPDPE from DOR in mouse whole brain membranes without cerebellum. It counts as cell membranes, Membrane.
Sequence of Delta-type opioid receptor (P32300 whole entry): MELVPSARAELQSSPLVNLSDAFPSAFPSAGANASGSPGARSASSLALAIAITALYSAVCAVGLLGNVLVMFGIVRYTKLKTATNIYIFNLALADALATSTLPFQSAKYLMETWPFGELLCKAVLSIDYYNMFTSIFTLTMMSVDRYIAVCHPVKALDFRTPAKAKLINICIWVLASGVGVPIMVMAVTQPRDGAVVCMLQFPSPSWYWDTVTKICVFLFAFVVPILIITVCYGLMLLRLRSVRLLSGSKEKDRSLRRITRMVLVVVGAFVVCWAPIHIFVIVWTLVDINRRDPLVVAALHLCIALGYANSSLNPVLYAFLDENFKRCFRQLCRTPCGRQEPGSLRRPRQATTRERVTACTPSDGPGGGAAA
Data set [2] has as its target Kappa-type opioid receptor (Mus musculus, UniProt P33534). Description: Displacement of [3H]U69,593 from KOR in mouse whole brain membranes without cerebellum. It counts as cell membranes, Membrane.
Data set [3] is described as follows: Selectivity index, ratio of Ki for MOR in guinea pig cerebellum membranes to Ki for KOR in mouse whole brain membranes without cerebellum. Type of data set: cell membranes.
For data set [4], the species on record is Mus musculus. Description: Selectivity index, ratio of Ki for DOR in mouse whole brain membranes without cerebellum to Ki for KOR in mouse whole brain membranes without cerebellum. Type of data set: cell membranes.
The test system of data set [5] is Mus musculus. Kind of data set: Antinociceptive activity in ICR mouse assessed as reduction in acetic acid-induced abdominal writhing dosed subcutaneously 15 mins before acetic acid challenge. Conditions: Abdomen; for ED50: sc. Type of data set: functional. (An intraperitoneal irritant provokes the stretching counted in writhing tests.)
The species entered for data set [6] is Mus musculus. Kind of data set: Induction of sedation in ICR mouse by spontaneous locomotor activity test. It counts as organism-based. As to conditions: in vivo.
The target of data set [7] is T1, Kappa-type opioid receptor (Homo sapiens, UniProt P41145). Description: Agonist activity at human KOR expressed in CHO cell membranes by [35S]GTPgammaS binding assay. Type of data set: functional. A general note: GTPγS resists hydrolysis and so accumulates on activated G proteins.
T1 sequence (P41145 whole entry): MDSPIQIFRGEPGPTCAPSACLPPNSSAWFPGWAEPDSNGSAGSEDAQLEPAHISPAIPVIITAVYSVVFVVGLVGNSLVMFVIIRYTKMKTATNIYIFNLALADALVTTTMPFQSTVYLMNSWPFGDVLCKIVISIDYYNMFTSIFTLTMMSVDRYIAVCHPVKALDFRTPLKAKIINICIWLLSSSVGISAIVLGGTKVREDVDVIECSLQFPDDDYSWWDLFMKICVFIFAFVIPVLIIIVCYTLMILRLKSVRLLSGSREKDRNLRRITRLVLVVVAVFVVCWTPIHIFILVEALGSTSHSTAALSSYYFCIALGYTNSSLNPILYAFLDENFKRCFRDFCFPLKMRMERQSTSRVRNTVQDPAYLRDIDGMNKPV
Data set [8] has as its target T1, Kappa-type opioid receptor. Kind of data set: Agonist activity at human KOR expressed in CHO cell membranes by [35S]GTPgammaS binding assay relative to U69,593. It counts as functional.
Data set [9] in a line: Therapeutic index, ratio of ED50 for induction of sedation in ICR mouse by spontaneous locomotor activity test to ED50 for antinociceptive activity in ICR mouse by acetic acid abdominal constriction test. It counts as organism-based, Abdomen. As to conditions: in vivo, read-out: Ratio ED50.
Data set [10] deals with Mus musculus. Kind of data set: Antinociceptive activity in ICR mouse assessed as reduction in acetic acid-induced abdominal writhing dosed subcutaneously 15 mins before acetic acid challenge and treated 24 hrs after 10 mg/kg, sc KOR antagonist nor-Binaltorphimin dosing. It counts as functional, organism-based. As to conditions: Abdomen.

Molecules are shown by their SMILES. Calls of active or inactive are those of the source. No cut-off for these calls is given here.

Sequence of Kappa-type opioid receptor (Mus musculus, UniProt P33534) (P33534 whole entry): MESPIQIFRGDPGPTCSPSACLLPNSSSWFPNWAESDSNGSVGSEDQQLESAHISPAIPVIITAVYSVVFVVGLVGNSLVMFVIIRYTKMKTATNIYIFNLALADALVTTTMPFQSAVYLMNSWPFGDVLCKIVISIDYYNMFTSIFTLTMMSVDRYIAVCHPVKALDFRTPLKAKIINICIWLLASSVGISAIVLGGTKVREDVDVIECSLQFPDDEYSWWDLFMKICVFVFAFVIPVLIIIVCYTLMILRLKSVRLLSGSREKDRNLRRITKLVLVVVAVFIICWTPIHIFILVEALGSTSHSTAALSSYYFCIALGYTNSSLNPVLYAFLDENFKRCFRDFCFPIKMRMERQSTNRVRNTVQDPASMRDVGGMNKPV

By Ki is commonly meant a measure of affinity in units of concentration, obtained from inhibition or displacement. Low readings indicate tighter binding, high ones weaker binding. With `CN(C(=O)/C=C/c1ccoc1)[C@@H]1C[C@@]23CCN(CC4CC4)[C@H]4C=C[C@@H]1C[C@]42Cc1ccc(O)cc13`, the inhibition constant Ki on Mu-type opioid receptor amounted to 0.57 nM; in [1], 3.98 nM; in [2] it was 0.23 nM. Also, the Ratio Ki in [3] was determined as 2.48; in the data set filed under Mus musculus [4], 17.3.

Consider `CN(C(=O)/C=C/c1ccoc1)[C@@H]1C[C@@]23CCN(CC4CC4)[C@H]4CC[C@@H]1C[C@]42Cc1ccc(O)cc13`, for which the figures for the Ki (at Mu-type opioid receptor; in data set [1]; in [2]) were 0.232 nM, 0.182 nM and 0.204 nM, respectively. In addition, the Ratio Ki amounted to 1.14 in data set [3] and 0.89 in the data set listed under Mus musculus [4].

On to `CN(C(=O)/C=C/c1ccoc1)[C@H]1C[C@@]23CCN(CC4CC4)[C@H]4CC[C@@H]1C[C@]42Cc1ccc(O)cc13`, for which the inhibition constant (Ki) on Mu-type opioid receptor amounted to 47.9 nM; in [1] it was 19.1 nM; in data set [2], 8.36 nM. Besides, the results for the Ratio Ki (in [3]; in the data set filed under Mus musculus [4]) were 5.73 and 2.28, respectively.

Consider `CN(C(=O)CCc1ccccc1)[C@@H]1C[C@@]23CCN(CC4CC4)[C@H]4C=C[C@@H]1C[C@]42Cc1ccc(O)cc13`, for which the inhibition constant Ki at Mu-type opioid receptor was 0.51 nM; in data set [1], 3.52 nM; in data set [2], 0.47 nM. Besides, the results for the Ratio Ki (in data set [3]; in the data set filed under Mus musculus [4]) were 1.09 and 7.49, respectively.

`CN(C(=O)CCc1ccccc1)[C@@H]1C[C@@]23CCN(CC4CC4)[C@H]4CCC1C[C@]42Cc1ccc(O)cc13` (single isomer, unassigned): the inhibitory constant (Ki) at Mu-type opioid receptor is 0.229 nM; in data set [1] it was 1.15 nM; in [2] it was 0.113 nM. Besides, the Ratio Ki turned out to be 2.03 in data set [3] and 10.2 in the data set filed under Mus musculus [4].

Broadly, the ED50 is the dose at which the effect has come halfway, by size or by number of responders. As to `CN(C(=O)/C=C/c1ccoc1)[C@@H]1CC[C@@]2(O)[C@H]3Cc4ccc(O)c5c4[C@@]2(CCN3CC2CC2)[C@H]1O5.Cl` [NALFURAFINE HYDROCHLORIDE], the 50% effective dose (ED50) stood at 0.00622 mg/kg in the data set on Mus musculus [5] and 0.0344 mg/kg in the data set listed under Mus musculus [6].

Take `CN(C(=O)Cc1ccccc1)[C@H]1C[C@@]23CCN(CC4CC4)[C@H]4C=C[C@@H]1C[C@]42Cc1ccc(O)cc13`: the Ki on Mu-type opioid receptor came to 12.2 nM; in data set [1], 4.5 nM; in data set [2], 1.73 nM. Also, the Ratio Ki in data set [3] turned out to be 7.05; in the data set listed under Mus musculus [4], 2.6.

Turning to `CN(C(=O)Cc1ccccc1)[C@H]1C[C@@]23CCN(CC4CC4)[C@H]4CCC1C[C@]42Cc1ccc(O)cc13` (single isomer, unassigned), the Ki at Mu-type opioid receptor was 59.6 nM; in data set [1], 15 nM; in data set [2] it was 11 nM. The Ratio Ki in data set [3] was found to be 5.42; in the data set filed under Mus musculus [4], 1.36.

As to `CN(C(=O)Cc1ccccc1)[C@@H]1C[C@@]23CCN(CC4CC4)[C@H]4C=C[C@@H]1C[C@]42Cc1ccc(O)cc13`, the inhibitory constant (Ki) worked out at 0.42 nM at Mu-type opioid receptor, 1.66 nM in [1] and 0.24 nM in data set [2]. Further, the Ratio Ki turned out to be 1.75 in data set [3] and 6.92 in the data set filed under Mus musculus [4].

`CN(C(=O)CCc1ccccc1)[C@H]1C[C@@]23CCN(CC4CC4)[C@H]4CCC1C[C@]42Cc1ccc(O)cc13` (single isomer, unassigned): the Ki was 11.5 nM at Mu-type opioid receptor, 32.4 nM in [1] and 11.9 nM in [2]. The figures for the Ratio Ki (in [3]; in the data set listed under Mus musculus [4]) were 0.966 and 2.72, respectively.

Take `CN(C(=O)c1ccccc1)[C@@H]1C[C@@]23CCN(CC4CC4)[C@H]4C=C[C@@H]1C[C@]42Cc1ccc(O)cc13`: the Ki is 2.7 nM at Mu-type opioid receptor, 2.23 nM in [1] and 4.46 nM in [2]. Also, the Ratio Ki came out at 0.61 in data set [3] and 0.5 in the data set listed under Mus musculus [4].

Take `CN(C(=O)c1ccccc1)[C@H]1C[C@@]23CCN(CC4CC4)[C@H]4CCC1C[C@]42Cc1ccc(O)cc13` (single isomer, unassigned): the values for the Ki (at Mu-type opioid receptor; in data set [1]; in [2]) were 56 nM, 1.27 nM and 13.8 nM, respectively. Further, the Ratio Ki in data set [3] was 4.06; in the data set listed under Mus musculus [4] it was 0.092.

With `CN(C(=O)CCc1ccccc1)[C@H]1C[C@@]23CCN(CC4CC4)[C@H]4C=C[C@@H]1C[C@]42Cc1ccc(O)cc13`, the inhibitory constant (Ki) on Mu-type opioid receptor was found to be 4.36 nM; in data set [1], 10.7 nM; in data set [2], 1.86 nM. In addition, the Ratio Ki stood at 2.34 in data set [3] and 5.75 in the data set filed under Mus musculus [4].

For the compound `CN(C(=O)Cc1ccccc1)[C@@H]1C[C@@]23CCN(CC4CC4)[C@H]4CCC1C[C@]42Cc1ccc(O)cc13` (single isomer, unassigned), the Ki at Mu-type opioid receptor turned out to be 0.197 nM; in data set [1], 1.19 nM; in [2], 0.136 nM. For the same compound, the figures for the Ratio Ki (in data set [3]; in the data set listed under Mus musculus [4]) were 1.45 and 8.75, respectively.

For `CN(C(=O)c1ccccc1)[C@H]1C[C@@]23CCN(CC4CC4)[C@H]4C=C[C@@H]1C[C@]42Cc1ccc(O)cc13`, the inhibitory constant (Ki) on Mu-type opioid receptor amounted to 47.6 nM; in data set [1], 6.46 nM; in data set [2], 13.1 nM. Moreover, the Ratio Ki in [3] came to 3.63; in the data set listed under Mus musculus [4], 0.493.

As a reminder, the EC50 is the concentration at which the effect is half-maximal. High values mean a less potent agent, low ones a more potent agent. The term Emax denotes the size of the effect at its maximum, as opposed to the concentration needed. `CN(C(=O)/C=C/c1ccoc1)[C@H]1C[C@@]23CCN(CC4CC4)[C@H]4C=C[C@@H]1C[C@]42Cc1ccc(O)cc13.Cl`: the inhibition constant (Ki) is 13.9 nM on Mu-type opioid receptor, 14.2 nM in data set [1] and 0.82 nM in data set [2]. Besides, the results for the Ratio Ki (in [3]; in the data set filed under Mus musculus [4]) were 17 and 17.3, respectively. Moreover, the EC50 in data set [7] was 11.8 nM. In [8], the Emax was found to be 108%. The inhibition entry in the data set with Mus musculus [5] was “Dose-dependent effect”. Further, the results for the ED50 in the data set with Mus musculus [5] and in the data set filed under Mus musculus [6] were 0.589 mg/kg and 7.74 mg/kg, respectively. Further, in data set [9], the selectivity ratio amounted to 13.1. Also, the inhibition result in the data set with Mus musculus [10] is “inactive”.

For `CN(C(=O)c1ccccc1)[C@@H]1C[C@@]23CCN(CC4CC4)[C@H]4CCC1C[C@]42Cc1ccc(O)cc13` (single isomer, unassigned), the values for the inhibitory constant (Ki) (on Mu-type opioid receptor; in data set [1]; in data set [2]) were 0.28 nM, 3.65 nM and 0.543 nM, respectively. The Ratio Ki in [3] came out at 0.516; in the data set filed under Mus musculus [4], 6.72.
